Tests used:
Assay type in all cases: in vivo
Erysiphe graminis = assay: Powdery Mildew of Wheat (Erysiphe graminis--ERYSGT); details: wheat (cultivar Monon), 100 ppm spray to run off, inoculated after 24 hours; for pest or weed control at 100 ppm: Blumeria graminis, 1DP, read-out: control of plant disease, ERYSGT 1DP
Procedure: (§1) Compound Formulation: Compound formulation was accomplished by dissolving technical materials in acetone, with serial dilutions then made in acetone to obtain desired rates. Final treatment volumes were obtained by adding nine volumes 0.05% aqueous Tween-20 or Triton X-100, depending upon the pathogen.
Powdery Mildew of Wheat (Erysiphe graminis--ERYSGT): Wheat (cultivar Monon) was grown in a soilless peat-based potting mixture (Metromix) until the seedlings were 1-2 leaf (BBCH 12). These plants were then sprayed to run off with the test compound at a rate of 100 ppm. After 24 hours the test plants were inoculated with Erysiphe graminis by dusting spores from stock plants onto the test plants. The plants were then transferred to the greenhouse until disease developed on the untreated control plants.
(§2) the following table presents the activity of typical compounds of the present invention when evaluated in these experiments. The effectiveness of the test compounds in controlling disease was rated using the following scale: […]

Phytophthora infestans = assay: whole plant or invertebrate; details: for pest or weed control at 100 ppm: Phytophthora infestans, 24 h, read-out: control of plant disease, PHYTIN 1DP; for control of plant disease, PHYTIN 1DP: tomatoes (cultivar Rutgers), 100 ppm spray to run off, inoculated after 24 hours
Leptosphaeria nodorum = assay: Glume blotch of wheat (Leptosphaeria nodorum--LEPTNO); details: wheat (cultivar Monon), 100 ppm spray to run off, inoculated after 24 hours; for pest or weed control at 100 ppm: Parastagonospora nodorum, 1DP, read-out: control of plant disease, LEPTNO 1DP
Procedure: as §1
(§3) Glume blotch of wheat (Leptosphaeria nodorum--LEPTNO): Wheat (cultivar Monon) was grown from seed in a soilless peat-based potting mixture (Metromix) until the seedlings were 1-2 leaf (BBCH 12). These plants were then sprayed to run off with the test compound at a rate of 100 ppm. After 24 hours the test plants were inoculated with an aqueous spore suspension of Leptosphaeria nodorum. The plants were then transferred to the greenhouse until disease developed on the untreated control plants.
as §2

Puccinia recondita = assay: Brown rust (Puccinia recondita--PUCCRT); details: wheat (cultivar Monon), 100 ppm spray to run off, inoculated after 24 hours; for pest or weed control at 100 ppm: Puccinia recondita, 1DP, read-out: control of plant disease, PUCCRT 1DP
Procedure: as §1
as §3, with “Brown rust (Puccinia recondita--PUCCRT):” for “Glume blotch of wheat (Leptosphaeria nodorum--LEPTNO):”, “[…]).” for “1-2 leaf (BBCH 12).”, “Puccinia recondita.” for “Leptosphaeria nodorum.”
as §2

## CNC(=O)C(=NOC)c1ccccc1COc1ccc(-c2noc(C(C)(C)C)n2)cn1 [Example 9]
Erysiphe graminis
  pest or weed control at 100 ppm: 75 to 100%
Phytophthora infestans
  pest or weed control at 100 ppm: 0 to 24%
Leptosphaeria nodorum
  pest or weed control at 100 ppm: 75 to 100%
Puccinia recondita
  pest or weed control at 100 ppm: 75 to 100%

## CNC(=O)C(=NOC)c1ccccc1COc1ncc(-c2nc(C3CCCCC3)no2)cc1Cl [Example 72]
Erysiphe graminis
  pest or weed control at 100 ppm: 0 to 24%
Phytophthora infestans
  pest or weed control at 100 ppm: 0 to 24%
Leptosphaeria nodorum
  pest or weed control at 100 ppm: 0 to 24%
Puccinia recondita
  pest or weed control at 100 ppm: 75 to 100%

## CNC(=O)C(=NOC)c1ccccc1COc1ccc(-c2nc(C(F)(F)F)no2)cn1 [Example 71]
Erysiphe graminis
  pest or weed control at 100 ppm: 75 to 100%
Phytophthora infestans
  pest or weed control at 100 ppm: 75 to 100%
Leptosphaeria nodorum
  pest or weed control at 100 ppm: 0 to 24%
Puccinia recondita
  pest or weed control at 100 ppm: 75 to 100%

## CON=C(C(=O)OC)c1ccccc1COc1ncc(-c2noc(C(C)(C)C)n2)cc1Cl [Example 97]
Erysiphe graminis
  pest or weed control at 100 ppm: 75 to 100%
Phytophthora infestans
  pest or weed control at 100 ppm: 75 to 100%
Leptosphaeria nodorum
  pest or weed control at 100 ppm: 75 to 100%
Puccinia recondita
  pest or weed control at 100 ppm: 75 to 100%

## CNC(=O)C(=NOC)c1ccccc1COc1ncc(-c2noc(CC(C)(C)C)n2)cc1Cl [Example 17]
Erysiphe graminis
  pest or weed control at 100 ppm: 75 to 100%
Phytophthora infestans
  pest or weed control at 100 ppm: 0 to 24%
Leptosphaeria nodorum
  pest or weed control at 100 ppm: 75 to 100%
Puccinia recondita
  pest or weed control at 100 ppm: 75 to 100%

## CNC(=O)C(=NOC)c1ccccc1COc1ncc(-c2nnc(C(C)(C)C)o2)cc1Cl [Example 4]
Erysiphe graminis
  pest or weed control at 100 ppm: 75 to 100%
Phytophthora infestans
  pest or weed control at 100 ppm: 0 to 24%
Leptosphaeria nodorum
  pest or weed control at 100 ppm: 75 to 100%
Puccinia recondita
  pest or weed control at 100 ppm: 75 to 100%

## CNC(=O)C(=NOC)c1ccccc1COc1ccc(-c2noc(COC)n2)cn1 [Example 25]
Erysiphe graminis
  pest or weed control at 100 ppm: 75 to 100%
Phytophthora infestans
  pest or weed control at 100 ppm: 75 to 100%
Leptosphaeria nodorum
  pest or weed control at 100 ppm: 25 to 74%
Puccinia recondita
  pest or weed control at 100 ppm: 75 to 100%

## CNC(=O)C(=NOC)c1ccccc1COc1ncc(-c2noc(C(F)(F)F)n2)cc1Cl [Example 11]
Erysiphe graminis
  pest or weed control at 100 ppm: 75 to 100%
Phytophthora infestans
  pest or weed control at 100 ppm: 0 to 24%
Leptosphaeria nodorum
  pest or weed control at 100 ppm: 75 to 100%
Puccinia recondita
  pest or weed control at 100 ppm: 75 to 100%

## CNC(=O)C(=NOC)c1ccccc1COc1ncc(-c2nc(C(C)(C)C)no2)cc1Cl [Example 47, Benzeneacetamide, 2-[[[3-chloro-5-(3-t-butyl-1,2,4-oxadiazol-5-yl)-2-pyridinyl]oxy]methyl]-α-(methoxyimino)-N-methyl-]
Erysiphe graminis
  pest or weed control at 100 ppm: 75 to 100%
Phytophthora infestans
  pest or weed control at 100 ppm: 0 to 24%
Leptosphaeria nodorum
  pest or weed control at 100 ppm: 75 to 100%
Puccinia recondita
  pest or weed control at 100 ppm: 75 to 100%

## CNC(=O)C(=NOC)c1ccccc1COc1cccc(-c2nc(C(C)C)no2)n1 [Example 87]
Erysiphe graminis
  pest or weed control at 100 ppm: 75 to 100%
Phytophthora infestans
  pest or weed control at 100 ppm: 75 to 100%
Leptosphaeria nodorum
  pest or weed control at 100 ppm: 75 to 100%
Puccinia recondita
  pest or weed control at 100 ppm: 75 to 100%

## CNC(=O)C(=NOC)c1ccccc1COc1ncc(-c2nc(N3CCCCC3)no2)cc1Cl [Example 69]
Erysiphe graminis
  control of plant disease, ERYSGT 1DP: ++ (75-100% control of plant disease)
Phytophthora infestans
  control of plant disease, PHYTIN 1DP: ++ (75-100% control of plant disease)
Leptosphaeria nodorum
  control of plant disease, LEPTNO 1DP: ++ (75-100% control of plant disease)
Puccinia recondita
  control of plant disease, PUCCRT 1DP: ++ (75-100% control of plant disease)

## CNC(=O)C(=NOC)c1ccccc1COc1ncc(-c2nc(CC(C)C)no2)cc1Cl [Example 77]
Erysiphe graminis
  pest or weed control at 100 ppm: 75 to 100%
Phytophthora infestans
  pest or weed control at 100 ppm: 0 to 24%
Leptosphaeria nodorum
  pest or weed control at 100 ppm: 75 to 100%
Puccinia recondita
  pest or weed control at 100 ppm: 75 to 100%

## CNC(=O)C(=NOC)c1cccc(F)c1COc1ncc(-c2noc(C(C)(C)C)n2)cc1Cl [Example 27]
Erysiphe graminis
  control of plant disease, ERYSGT 1DP: ++ (75-100% control of plant disease)
Phytophthora infestans
  control of plant disease, PHYTIN 1DP: - (0-24% control of plant disease)
Leptosphaeria nodorum
  control of plant disease, LEPTNO 1DP: ++ (75-100% control of plant disease)
Puccinia recondita
  control of plant disease, PUCCRT 1DP: ++ (75-100% control of plant disease)

## CCC=Cc1nc(-c2cnc(OCc3ccccc3C(=NOC)C(=O)NC)c(Cl)c2)no1 [Example 22]
Erysiphe graminis
  pest or weed control at 100 ppm: 75 to 100%
Phytophthora infestans
  pest or weed control at 100 ppm: 0 to 24%
Leptosphaeria nodorum
  pest or weed control at 100 ppm: 75 to 100%
Puccinia recondita
  pest or weed control at 100 ppm: 75 to 100%

## CNC(=O)C(=NOC)c1ccccc1COc1ncc(-c2noc(CCCl)n2)cc1Cl [Example 26]
Erysiphe graminis
  pest or weed control at 100 ppm: 75 to 100%
Phytophthora infestans
  pest or weed control at 100 ppm: 75 to 100%
Leptosphaeria nodorum
  pest or weed control at 100 ppm: 75 to 100%
Puccinia recondita
  pest or weed control at 100 ppm: 75 to 100%
